Assay results reported in the supplement of paper PMC11061612.

Assays:
[1] = tested on: WM-115 (Melanoma); test: combination Emax (second highest fraction inhibited in the dose matrix, 72 h); higher = more inhibition; extreme values may be limits of the assay
Method in brief: (§1)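 Cell lines grown in DMEM/F12 or RPMI with 10% FBS were plated in 1536-well plates and held 24 hours at 37°C, 5% CO2 before 72 hours of exposure to two-drug dose matrices, with DMSO typically at 0.2%. CellTiter-Glo 2.0 luminescence gave viability, which was converted to inhibition. Vehicle wells were set to 0 and blank wells to 1. Combination Emax is the second-highest inhibition in the matrix, and Bliss excess is the observed combination effect minus the expected EA + EB − EA·EB, where EA and EB are the single-agent effects.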

[2] = tested on: GR-ST (B-Lymphoblastic Leukemia); test: as above
Method in brief: as §1

[3] = tested on: SW837 (Colorectal Carcinoma); test: as above
Method in brief: as §1

[4] = tested on: WIL2-NS (Non-Cancerous); test: as above
Method in brief: as §1

[5] = tested on: CAMA-1 (Breast Carcinoma); test: as above
Method in brief: as §1

[6] = tested on: MKN28 (Gastric Carcinoma); test: as above
Method in brief: as §1

[7] = tested on: ES1 (Ewing's Sarcoma); test: as above
Method in brief: as §1

[8] = tested on: NCI-H1792 (Lung Adenocarcinoma); test: as above
Method in brief: as §1

[9] = tested on: L-540 (Hodgkin's Lymphoma); test: as above
Method in brief: as §1

[10] = tested on: DND-41 (T-Lymphoblastic Leukemia); test: as above
Method in brief: as §1

[11] = tested on: K-562 (Chronic Myelogenous Leukemia); test: as above
Method in brief: as §1

[12] = tested on: BFTC-905 (Bladder Carcinoma); test: as above
Method in brief: as §1

[13] = tested on: NCI-H2818 (Mesothelioma); test: as above
Method in brief: as §1

[14] = tested on: BL-41 (Burkitt's Lymphoma); test: as above
Method in brief: as §1

[15] = tested on: ES8 (Ewing's Sarcoma); test: as above
Method in brief: as §1

[16] = tested on: SW1417 (Colorectal Carcinoma); test: as above
Method in brief: as §1

[17] = tested on: SR (Other Blood Carcinomas); test: as above
Method in brief: as §1

[18] = tested on: WM-115 (Melanoma); test: Bliss excess, mean over the matrix (fraction); higher = more synergy
Method in brief: as §1

[19] = tested on: GR-ST (B-Lymphoblastic Leukemia); test: as above
Method in brief: as §1

[20] = tested on: SW837 (Colorectal Carcinoma); test: as above
Method in brief: as §1

[21] = tested on: WIL2-NS (Non-Cancerous); test: as above
Method in brief: as §1

[22] = tested on: CAMA-1 (Breast Carcinoma); test: as above
Method in brief: as §1

[23] = tested on: MKN28 (Gastric Carcinoma); test: as above
Method in brief: as §1

[24] = tested on: ES1 (Ewing's Sarcoma); test: as above
Method in brief: as §1

[25] = tested on: NCI-H1792 (Lung Adenocarcinoma); test: as above
Method in brief: as §1

[26] = tested on: L-540 (Hodgkin's Lymphoma); test: as above
Method in brief: as §1

[27] = tested on: DND-41 (T-Lymphoblastic Leukemia); test: as above
Method in brief: as §1

[28] = tested on: K-562 (Chronic Myelogenous Leukemia); test: as above
Method in brief: as §1

[29] = tested on: BFTC-905 (Bladder Carcinoma); test: as above
Method in brief: as §1

[30] = tested on: NCI-H2818 (Mesothelioma); test: as above
Method in brief: as §1

[31] = tested on: BL-41 (Burkitt's Lymphoma); test: as above
Method in brief: as §1

[32] = tested on: ES8 (Ewing's Sarcoma); test: as above
Method in brief: as §1

[33] = tested on: SW1417 (Colorectal Carcinoma); test: as above
Method in brief: as §1

[34] = tested on: SR (Other Blood Carcinomas); test: as above
Method in brief: as §1

[35] = tested on: TE-6 (Esophageal Squamous Cell Carcinoma); test: combination Emax (second highest fraction inhibited in the dose matrix, 72 h); higher = more inhibition; extreme values may be limits of the assay
Method in brief: as §1

[36] = tested on: TC-71 (Ewing's Sarcoma); test: as above
Method in brief: as §1

[37] = tested on: U251 (Low Grade Glioma); test: as above
Method in brief: as §1

[38] = tested on: TE-6 (Esophageal Squamous Cell Carcinoma); test: Bliss excess, mean over the matrix (fraction); higher = more synergy
Method in brief: as §1

[39] = tested on: TC-71 (Ewing's Sarcoma); test: as above
Method in brief: as §1

[40] = tested on: U251 (Low Grade Glioma); test: as above
Method in brief: as §1
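For Bliss excess, mean over the matrix in this document: after 72 h of two-drug dosing.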

N#Cc1cnc(Nc2cc(NC[C@H]3CNCCO3)c(C(F)(F)F)cn2)cn1 [SRA737] + C=CCn1c(=O)c2cnc(Nc3ccc(N4CCN(C)CC4)cc3)nc2n1-c1cccc(C(C)(C)O)n1 [AZD1775] (first compound max 10 µM, partner max 1 µM)
combination Emax [1]: 0.356 | combination Emax [2]: 0.864 | combination Emax [3]: 0.725 | combination Emax [4]: 0.968 | combination Emax [5]: 0.442 | combination Emax [6]: 0.504 | combination Emax [7]: 0.993 | combination Emax [8]: 0.864 | combination Emax [9]: 0.921 | combination Emax [10]: 0.949 | combination Emax [11]: 0.967 | combination Emax [12]: 0.777 | combination Emax [13]: 0.299 | combination Emax [14]: 1 | combination Emax [15]: 0.884 | combination Emax [16]: 0.537 | combination Emax [17]: 1 | Bliss excess [18]: -0.0524 | Bliss excess [19]: 0.0215 | Bliss excess [20]: 0.0157 | Bliss excess [21]: 0.102 | Bliss excess [22]: 0.0672 | Bliss excess [23]: 0.0204 | Bliss excess [24]: 0.118 | Bliss excess [25]: 0.0434 | Bliss excess [26]: 0.0404 | Bliss excess [27]: 0.104 | Bliss excess [28]: 0.0463 | Bliss excess [29]: 0.0526 | Bliss excess [30]: -0.0129 | Bliss excess [31]: 0.0924 | Bliss excess [32]: 0.144 | Bliss excess [33]: 0.0127 | Bliss excess [34]: 0.029

CS(=O)(=O)CCNCc1ccc(-c2ccc3ncnc(Nc4ccc(OCc5cccc(F)c5)c(Cl)c4)c3c2)o1 [Lapatinib] + NC1(c2ccc(-c3nc4ccn5c(=O)[nH]nc5c4cc3-c3ccccc3)cc2)CCC1 [MK-2206] (first compound max 10 µM, 7x7, partner max 10 µM)
combination Emax [1]: 0.855 | combination Emax [2]: 0.981 | combination Emax [3]: 0.633 | combination Emax [4]: 0.674 | combination Emax [5]: 0.909 | combination Emax [6]: 0.687 | combination Emax [7]: 0.97 | combination Emax [35]: 0.816 | combination Emax [8]: 0.785 | combination Emax [9]: 0.918 | combination Emax [10]: 0.946 | combination Emax [11]: 0.602 | combination Emax [36]: 0.589 | combination Emax [12]: 0.888 | combination Emax [13]: 0.351 | combination Emax [14]: 0.942 | combination Emax [37]: 0.454 | combination Emax [15]: 0.851 | combination Emax [16]: 0.459 | combination Emax [17]: 0.819 | Bliss excess [18]: -0.0093 | Bliss excess [19]: -0.0298 | Bliss excess [20]: 0.0106 | Bliss excess [21]: 0.0569 | Bliss excess [22]: 0.0301 | Bliss excess [23]: -0.0445 | Bliss excess [24]: 0.0341 | Bliss excess [38]: -0.0159 | Bliss excess [25]: 0.0243 | Bliss excess [26]: -0.0209 | Bliss excess [27]: 0.0377 | Bliss excess [28]: -0.0367 | Bliss excess [39]: -0.0342 | Bliss excess [29]: 0.0323 | Bliss excess [30]: -0.0155 | Bliss excess [31]: 0.0176 | Bliss excess [40]: -0.0083 | Bliss excess [32]: -0.004 | Bliss excess [33]: 0.0395 | Bliss excess [34]: 0.0147

C=CCn1c(=O)c2cnc(Nc3ccc(N4CCN(C)CC4)cc3)nc2n1-c1cccc(C(C)(C)O)n1 [AZD1775] + Nc1ccn([C@@H]2O[C@H](CO)[C@@H](O)C2(F)F)c(=O)n1 [Gemcitabine] (first compound max 1 µM, partner max 0.3 µM)
combination Emax [1]: 0.459 | combination Emax [2]: 0.855 | combination Emax [3]: 0.691 | combination Emax [4]: 0.973 | combination Emax [5]: 0.534 | combination Emax [6]: 0.552 | combination Emax [7]: 1 | combination Emax [8]: 0.878 | combination Emax [9]: 0.968 | combination Emax [10]: 0.943 | combination Emax [11]: 0.869 | combination Emax [12]: 0.836 | combination Emax [13]: 0.44 | combination Emax [14]: 1 | combination Emax [15]: 1 | combination Emax [16]: 0.663 | combination Emax [17]: 1 | Bliss excess [18]: 0.0368 | Bliss excess [19]: -0.0072 | Bliss excess [20]: 0.0269 | Bliss excess [21]: 0.0149 | Bliss excess [22]: 0.0354 | Bliss excess [23]: 0.0781 | Bliss excess [24]: 0.0471 | Bliss excess [25]: -0.0287 | Bliss excess [26]: 0.0052 | Bliss excess [27]: 0.0256 | Bliss excess [28]: 0.0554 | Bliss excess [29]: -0.0015 | Bliss excess [30]: -0.0333 | Bliss excess [31]: -0.0067 | Bliss excess [32]: 0.0248 | Bliss excess [33]: 0.0353 | Bliss excess [34]: 0.0344
